Patent publication US5840684A, “Glycopeptide antibiotic derivatives” (Eli Lilly and Company, priority 1995, dated 1998)
In brackets after ≈: the same amount, converted by molar mass. Read-outs that look alike come from different tables or passages of the source.

How the values were obtained:
Pediococcus acidilacti = assay: agar dilution MIC, lactic acid bacteria; type: cell-based
Streptococcus pyogenes = assay: mouse protection, experimentally-induced infection; type: in vivo; settings: mice infected with Streptococcus pyogenes, two doses
Leuconostoc citreum = assay: agar dilution MIC, lactic acid bacteria; type: cell-based
[1] = test system: vancomycin-resistant enterococci; assay: broth micro-dilution, mean geometric MIC; type: cell-based, Enterococcus faecium and Enterococcus faecalis
[2] = test system: Leuconostoc mesenteroides; assay: agar dilution MIC, lactic acid bacteria; type: cell-based
[3] = test system: Entercoccus faecium 180-1; assay: broth micro-dilution MIC; type: cell-based
Description: (§1) The MIC's were determined using a standard broth micro-dilution assay.

[4] = test system: Streptococcus pyogenes C203; assay: broth micro-dilution MIC; type: cell-based
Description: as §1

[5] = test system: Staphylococcus aureus X778; assay: broth micro-dilution MIC; type: cell-based
Description: as §1

[6] = test system: Staphylococcus aureus X400; assay: broth micro-dilution MIC; type: cell-based
Description: as §1

[7] = test system: Staphylococcus aureus SA1199A; assay: broth micro-dilution MIC; type: cell-based
Description: as §1

[8] = test system: Staphylococcus aureus SA1199; assay: broth micro-dilution MIC; type: cell-based
Description: as §1

Entercoccus faecium 276 = assay: broth micro-dilution MIC; type: cell-based
Description: as §1

[9] = test system: Staphylococcus aureus 446; assay: broth micro-dilution MIC; type: cell-based
Description: as §1

[10] = test system: Staphylococcus aureus 491; assay: broth micro-dilution MIC; type: cell-based
Description: as §1

[11] = test system: Staphylococcus aureus 447; assay: broth micro-dilution MIC; type: cell-based
Description: as §1

[12] = test system: Staphylococcus aureus 489; assay: broth micro-dilution MIC; type: cell-based
Description: as §1

Streptococcus pneumoniae = assay: mouse protection, experimentally-induced infection; type: in vivo; settings: mice infected with Streptococcus pneumoniae, two doses
Leuconostoc lactis = assay: agar dilution MIC, lactic acid bacteria; type: cell-based
[13] = test system: Staphylococcus aureus SA1199B; type: cell-based
Description: as §1

[14] = test system: Staphylococcus aureus S13E; type: cell-based
Description: as §1

[15] = test system: Leuconostoc pseudomesenteroides; assay: agar dilution MIC, lactic acid bacteria; type: cell-based
Pediococcus pentosaceus = assay: agar dilution MIC, lactic acid bacteria; type: cell-based
[16] = test system: vancomycin-susceptible enterococci; assay: broth micro-dilution, mean geometric MIC; type: cell-based, Enterococcus faecium and Enterococcus faecalis
Lactobacillus confusus = assay: agar dilution MIC, lactic acid bacteria; type: cell-based
Stapylococcus aureus = assay: mouse protection, experimentally-induced infection; type: in vivo; settings: mice infected with Stapylococcus aureus, two doses
Escherichia coli EC14 = assay: broth micro-dilution MIC; type: cell-based
Description: (§2) The formula I compounds have in vitro and in vivo activity against Gram-positive pathogenic bacteria. The MIC's were determined using a standard broth micro-dilution assay.

Entercoccus faecium 180 = assay: broth micro-dilution MIC; type: cell-based
Description: as §2

Entercoccus faecium 2041 = assay: broth micro-dilution MIC; type: cell-based
Description: as §2

[17] = test system: Staphylococcus haemolyticus 105; assay: broth micro-dilution MIC; type: cell-based
Description: as §2

[18] = test system: Streptococcus pneumoniae P1; assay: broth micro-dilution MIC; type: cell-based
Description: as §2

[19] = test system: Staphylococcus epidermidis 270; assay: broth micro-dilution MIC; type: cell-based
Description: as §2

[20] = test system: Enterococcus gallinarum 245; assay: broth micro-dilution MIC; type: cell-based
Description: as §2

[21] = test system: Staphylococcus haemolyticus 415; assay: broth micro-dilution MIC; type: cell-based
Description: as §2

[22] = test system: Haemophilus influenzae RD; assay: broth micro-dilution MIC; type: cell-based; settings: Haemophilus influenzae
Description: as §2

[23] = enterococci, 24-hour incubation

CNC(CC(C)C)C(=O)NC1C(=O)NC(CC(N)=O)C(=O)NC2C(=O)NC3C(=O)NC(C(=O)NC(C(=O)O)c4cc(O)cc(O)c4-c4cc3ccc4O)C(OC3CC(C)(N)C(O)C(C)O3)c3ccc(c(Cl)c3)Oc3cc2cc(c3OC2OC(CO)C(O)C(O)C2OC2CC(C)(NCc3ccc(Oc4ccccc4)cc3)C(O)C(C)O2)Oc2ccc(cc2Cl)C1O (centres unmarked) [Compound 4, p-phenoxybenzyl·A82846B] was tested, and the MIC (Pediococcus acidilacti; Pediococcus acidilacti (mean of 10), brain-heart infusion agar) was 7.5 mg/L (≈ 4.23 µM), the ED50 (Streptococcus pyogenes) was 0.012 mg/kg/2 and the MIC (Leuconostoc citreum; brain-heart infusion agar) was 128 mg/L (≈ 72.1 µM). For the same molecule, the “mean geometric MIC, Vancomycin Resistant Strains” value [1, 23] was 0.50 mg/L, the MIC ([2]; Leuconostoc mesenteroides (mean of 4), brain-heart infusion agar) was 16 mg/L (≈ 9.02 µM) and the MIC [3] was no more than 0.06 mg/L. The MIC [4] was no more than 0.06 mg/L, the MIC [5] was no more than 0.06 mg/L and the MIC [6] was no more than 0.06 mg/L. For the same molecule, the MIC [7] was no more than 0.06 mg/L, the MIC [8] was no more than 0.06 mg/L and the MIC (Entercoccus faecium 276) was no more than 0.06 mg/L. It also gave an MIC [9] of no more than 0.06 mg/L, an MIC [10] of no more than 0.06 mg/L and an MIC [11] of 0.25 mg/L (≈ 0.141 µM). For the same molecule, the MIC [12] was no more than 0.06 mg/L, the ED50 (Streptococcus pneumoniae) was 0.036 mg/kg/2 and the MIC (Leuconostoc lactis; Leuconostoc lactis (mean of 2), brain-heart infusion agar) was 16 mg/L (≈ 9.02 µM). The MIC [13] was no more than 0.06 mg/L, the MIC [14] was no more than 0.06 mg/L and the MIC ([15]; brain-heart infusion agar) was 32 mg/L (≈ 18 µM). For the same molecule, the MIC (Pediococcus pentosaceus; Pediococcus pentosaceus (mean of 2), brain-heart infusion agar) was 16 mg/L (≈ 9.02 µM), the “mean geometric MIC, Vancomycin Sensitive Strains” value [16, 23] was 0.062 mg/L and the MIC (Lactobacillus confusus; Lactobacillus confusus, brain-heart infusion agar) was 32 mg/L (≈ 18 µM). For the same molecule, the ED50 (Stapylococcus aureus) was 0.36 mg/kg/2, the MIC (Escherichia coli EC14) was greater than 64 mg/L and the MIC (Entercoccus faecium 180; Entercoccus faecium 180) was 0.125 mg/L (≈ 0.0704 µM). For the same molecule, the MIC (Entercoccus faecium 2041; Entercoccus faecium 2041) was no more than 0.06 mg/L, the MIC [17] was 0.5 mg/L (≈ 0.282 µM) and the MIC [18] was no more than 0.06 mg/L. It also gave an MIC [19] of no more than 0.06 mg/L, an MIC ([20]; Enterococcus gallinarum 245) of no more than 0.06 mg/L and an MIC [21] of 0.5 mg/L (≈ 0.282 µM).
CN[C@H](CC(C)C)C(=O)N[C@H]1C(=O)N[C@@H](CC(N)=O)C(=O)N[C@H]2C(=O)N[C@H]3C(=O)N[C@H](C(=O)N[C@H](C(=O)O)c4cc(O)cc(O)c4-c4cc3ccc4O)[C@H](O)c3ccc(c(Cl)c3)Oc3cc2cc(c3O[C@@H]2O[C@H](CO)[C@@H](O)[C@H](O)[C@H]2O[C@H]2C[C@](C)(N)[C@H](O)[C@H](C)O2)Oc2ccc(cc2Cl)[C@H]1O [vancomycin, reference compound] gave an MIC (Pediococcus acidilacti; Pediococcus) of 891 mg/L (≈ 615 µM), an ED50 (Streptococcus pyogenes) of 0.8 mg/kg/2 and an MIC (Leuconostoc citreum) greater than 1020 mg/L. For the same molecule, the MIC ([1]; 24 h, read-out: mean geometric MIC, Vancomycin Resistant Strains) was 282 mg/L (≈ 195 µM), the MIC ([2]; Leuconostoc mesenteroides) was 1020 mg/L (≈ 707 µM) and the MIC [7] was 0.125 mg/L (≈ 0.0863 µM). For the same molecule, the MIC [12] was 0.125 mg/L (≈ 0.0863 µM), the ED50 (Streptococcus pneumoniae) was 1.1 mg/kg/2 and the MIC (Leuconostoc lactis; Leuconostoc lactis) was 1020 mg/L (≈ 707 µM). The MIC [15] was greater than 1020 mg/L, the MIC (Pediococcus pentosaceus; Pediococcus pentosaceus) was 1020 mg/L (≈ 707 µM) and the MIC ([16]; 24 h, read-out: mean geometric MIC, Vancomycin Sensitive Strains) was 3.9 mg/L (≈ 2.69 µM). The MIC (Lactobacillus confusus; Weissella confusa) was 1020 mg/L (≈ 707 µM), the ED50 (Stapylococcus aureus) was 1.2 mg/kg/2 and the MIC (Escherichia coli EC14) was greater than 64 mg/L. For the same molecule, the MIC (Entercoccus faecium 180) was greater than 64 mg/L, the MIC (Entercoccus faecium 2041) was 2 mg/L (≈ 1.38 µM) and the MIC [17] was 16 mg/L (≈ 11 µM). For the same molecule, the MIC [18] was 0.25 mg/L (≈ 0.173 µM), the MIC [19] was 16 mg/L (≈ 11 µM) and the MIC [22] was greater than 64 mg/L. The MIC ([20]; Enterococcus gallinarum, GALLINARUM) was 4 mg/L (≈ 2.76 µM) and the MIC [21] was 8 mg/L (≈ 5.52 µM).
